The test system of data set [1] is BJ. Kind of data set: Induction of apoptosis in human BJ cells assessed as induction of […] fragmentation at 5 to 40 mM after 48 hrs by DAPI staining-based fluorescence assay. It counts as cell-based. Particulars: 40000 µM.
Data set [2] is described as follows: Cytotoxicity against human SCC15 cells after 48 hrs by XTT assay. It counts as functional, cell-based. Particulars: SCC-15, 48 h. (Formazan colour is commonly taken as a measure of viable cells.)
The test system of data set [3] is BJ. Kind of data set: Induction of apoptosis in human BJ cells assessed as induction of […] fragmentation at 20 to 40 mM after 48 hrs by DAPI staining-based laser scanning confocal microscopic analysis. The class given is cell-based. Particulars: 40000 µM.
The subject of data set [4] is SCC-15. As to the kind of experiment: Induction of apoptosis in human SCC15 cells assessed as induction of […] fragmentation at 20 to 40 mM after 48 hrs by DAPI staining-based laser scanning confocal microscopic analysis. It counts as functional, cell-based.
The subject of data set [5] is SCC-15. As to the kind of experiment: Binding affinity to DNA in human SCC-15 cells at 1 mM after 5 days by laser desorption/ionization mass spectrometric analysis. It counts as cell-based.
In data set [6] the test system is BJ. Kind of data set: Cytotoxicity against human BJ cells after 48 hrs by XTT assay. It counts as cell-based.
Data set [7] is described as follows: Cytotoxicity against human SCC15 cells after 48 hrs by neutral red assay. It counts as functional, cell-based. Particulars: SCC-15, 48 h.
Data set [8] deals with BJ. As to the kind of experiment: Cytotoxicity against human BJ cells after 48 hrs by neutral red assay. The class given is cell-based.
For data set [9], the system named is SCC-15. As to the kind of experiment: Induction of apoptosis in human SCC15 cells assessed as induction of […] fragmentation at 20 to 40 mM after 48 hrs by DAPI staining-based fluorescence assay. The class given is functional, cell-based.

Among the data in ChEMBL document CHEMBL3612026, “Biological activity of N(4)-boronated derivatives of 2'-deoxycytidine, potential agents for boron-neutron capture therapy” (Bioorg Med Chem, 2015) are Activity and IC50 values, retold here.

The source made the active and inactive calls. The rule behind the calls is not given here.

Turning to `CC1(C)OB(CNc2ccn([C@H]3C[C@@H](O)[C@@H](CO)O3)c(=O)n2)OC1(C)C`, the Activity result in the data set on BJ [1] and with BJ [3] was “Non-toxic” throughout. Also, the IC50 (in general, the midpoint of a concentration-inhibition curve) is 18.8 mM in data set [2], 45.1 mM with BJ [6], 16.4 mM in data set [7] and 49.5 mM in the data set with BJ [8]. Besides, the outcome with SCC-15 [4], in the data set with SCC-15 [5] and with SCC-15 [9] was Active.
